Measurements as given in US9415069B2, “Immunosuppressive cells and methods of making and using thereof” (National Health Research Institutes, priority 2012, dated 2016).
Entries after “also recorded” stand apart in the source; their conditions may differ.

How the values were obtained:
[1] = system: human monocyte-derived dendritic cells (MDDCs); assay: Surface marker phenotype of human MDDCs by flow cytometry; format: cell-based; details: for effect on CD40 expression: human iMDDCs supplemented with GRO isoform, day 7
Description: Human monocyte-derived dendritic cells (MDDCs) were generated from leukaphereses obtained from healthy donors. Peripheral blood mononuclear cells (PBMCs) were purified by Fycoll-Hypaque Plus (GE Health-Pharmacia, Uppsala, Sweden) density centrifugation. CD14^+ monocytes were isolated using the human CD14^+ Cell Isolation Kit (MACS, Miltenyi Biotec, Inc., Auburn, Calif., USA) according to the manufacturer's instructions. The purified CD14^+ cells (1×10^6/mL) were subsequently cultured in 2 mL MSC-CM or α-MEM completed medium with 10% pooled AB-type human serum supplemented with rhGM-CSF (80 ng/mL) and rhIL-4 (80 ng/mL) (Peprotech, NJ) in the presence or absence of GRO chemokines to induce their differentiation into DCs. An additional 1 mL of medium containing the same concentrations of rhGM-CSF and rhIL-4 with or without GRO chemokines was added to each group of cells on day 3. Half-volume of culture medium was replaced with an equal volume of fresh medium containing the same concentrations of rhGM-CSF and rhIL-4 on day 5. Maturation of MDDCs (mature DCs, mMDDCs) was induced by adding 1 μg/mL LPS to the culture medium of iMDDCs on day 5 and cells were further cultured for another 48 hours. Phenotypic changes in immature DCs (iMDDCs) and mature DCs (mMDDCs) were monitored by FACS analysis on day 7. The study protocols were approved by the Institutional Review Board of Human Subject Research Ethics Committee of Academia Sinica (AS-IRB01-10113) and the Institutional Review Board of Research Ethics Committee of National Health Research Institutes (EC 1001101).
(§1) The phenotypic profiles of monocytes, iMDDCs and mMDDCs were obtained by staining 1×10^5 cells with fluorochrome-labeled antibodies (Abs) against CD11c, HLA-DR, CD80, CD86, CD83, CD40, and DC-SIGN. The fluorescence intensity was measured by flow cytometry. The corresponding isotype-matched controls used were FITC-IgG1, FITC-IgG2a, PE-IgG2a, and PE-IgG2b (BD Biosciences, San Jose, Calif., USA). Surface-labeled cells were analyzed using a FACS Calibur-flow cytometer (BD Biosciences). For cell purification, sorting was performed on a FACS Aria cell sorter (BD Biosciences). The purity of individual sorted cell populations was greater than 95%.

[2] = system: immature MDDCs (iDCs); assay: Endocytosis test (FITC-dextran uptake); format: cell-based, human
Description: The endocytic activity of iMDDCs or mMDDCs was measured by analyzing the cellular uptake of FITC-dextran (40 kD, FD40S, Sigma-Aldrich) as quantified by flow cytomerty. Cells (5×10^4 cells/sample/96 well V bottom plate) were incubated in RPMI-1640 medium with 1 mg/mL FITC-dextran for 30 min at 37° C. After incubation, cells were washed twice with staining buffer to remove free reagent then fixed with 1% paraformaldehyde. The signal from FITC-dextran endocytosed by cells was analyzed by FACS. Data analysis was performed using the FlowJo version 5.7.2 software. The signal obtained for cells incubated with medium in the absence of FITC-dextran was used as negative control.

[3] = system: mature MDDCs co-cultured with allogeneic T cells; assay: MLR assay (allogeneic T-cell proliferation, [3H]-thymidine); format: cell-based, human
Description: Monocyte-derived cells (3×10^4) at different stages of differentiation were irradiated at 30 Gy using an X-ray biological irradiator (X-ray R-2000, Rad Source Technologies, Inc, Alpharetta, Ga., USA) and then cultured with purified allogenic CD3 T cells (1:10) in complete culture medium in 96-well U-bottom plate. X-ray irradiated myeloid cells and allogenic T lymphocytes were placed in a humidified CO2 incubator at 37° C. After 96 hours, [^3H]-thymidine (1 μCi) was added to each well containing either monocytes-, iMDDCs-, or mMDDCs mixed with T cells, and further incubated for 16 hours. Cells were then harvested using a Filtermate 96-well harvester and radioactivity (cpm) measured as an index of cell proliferation in a Packard microplate scintillation and luminescence counter (Perkin-Elmer-Packard; Waltham, Mass., USA).

[4] = system: CD11b+ Gr-1+ BMDCs; assay: ARG-1 and iNOS expression in mouse BMDCs; format: cell-based
Description: Total RNA was extracted with the Trizol reagent and converted to cDNA using a ReverTra Ace set (Toyobo Life Science, Osaka, Japan), according to manufacturer's instructions. Real-time PCR analysis was performed using an ABI Prism 7900 system (Applied Biosystems, Foster City, Calif., USA). Samples were treated according to the following program: […], 94° C. for 10 min, and 40 cycles of 95° C. for 15 s and 60° C. for 1 min. Analyses were performed in triplicate. For each sample, the cycle threshold (Ct) values were determined. Results were normalized to the GAPDH gene on the same plate. The levels of mRNA expression in different cell groups were calculated using the 2ΔCt method. Intron-spanning primers specific for each gene were designed. Their sequences are as follows: human GAPDH, […] (forward primer, F, SEQ ID NO:4), […] (reverse primer, R, SEQ ID NO:5); human IL-10, […] (F, SEQ ID NO:6), […] (R, SEQ ID NO:7); human IDO, […] (F, SEQ ID NO:8), TGACCTTTGCCCCACACAT (R, SEQ ID NO:9); human matrix-metallopeptidase-9 (MMP-9), […] (F, SEQ ID NO:10), […] (R, SEQ ID NO:11); human IL-4, […] (F, SEQ ID NO:12), GCCTGTGGAACTGCTGTGC (R, SQ ID NO:13); human IL-12p40, CGGTCATCTGCCGCAAA (F, SEQ ID NO:14), […] (R, SEQ ID NO:15); human TNF-α, […] (F, SEQ ID NO:16), CAGGCAGAAGAGCGTGGTG (R, SEQ ID NO:17); human IFN-γ, […] (F, SEQ ID NO:18), […] (R, SEQ ID NO:19); human Cox2, […] (F, SEQ ID NO:20), […] (R, SEQ ID NO:21); human PD-L1, […] (F, SEQ ID NO:22), […] (R, SEQ ID NO:23); human PD-L2, […] (F, SEQ ID NO:24), […] (R, SEQ ID NO:25); human TGF-β, […] (F, SEQ ID NO:26), […] (R, SEQ ID NO:27); human IL-6, […] (F, SEQ ID NO:28), […] (R, SEQ ID NO:29); IL-1β, […] (F, SEQ ID NO:30), […] (R, SEQ ID NO:31); mouse GAPDH, GATGCAGGGATGATGTTC (F, SEQ ID NO:32), TGCACCACCAACTGCTTAG (R, SEQ ID NO:33); mouse Arginase 1(Arg-1), […] (F, SEQ ID NO:34), […] (R, SEQ ID NO:35); mouse iNOS, […] (F, SEQ ID NO:36), […] (R, SEQ ID NO:37); mouse IFN-γ, […] (F, SEQ ID NO:38), […] (R, SEQ ID NO:39).
(§2) Murine bone marrow-derived dendritic cells (BM-DCs) were harvested and differentiated into dentritic cells as previously described (Song et al., 2011). Briefly, bone marrow cells from C57BL/6 mice were cultured at a density of 2×10^5 cells/mL in petri dishes containing 10 mL of complete RPMI-1640 medium with 200 U/mL (20 ng/mL) recombinant mouse GM-CSF in the presence or absence of recombinant mouse GRO chemokine. On day 3, half of the volume of the culture medium was replaced by complete RPMI medium containing 20 ng/mL of […] combined with or without GRO. On day 6, BMDCs from the different treatment groups were collected from each dish, washed and characterized.

[5] = system: MDDCs; assay: Real-time PCR of selected genes in MDDCs from 7-day cultures; format: cell-based, human; details: MDDC differentiation in presence of GRO-γ
Description: Total RNA was extracted with the Trizol reagent and converted to cDNA using a ReverTra Ace set (Toyobo Life Science, Osaka, Japan), according to manufacturer's instructions. Real-time PCR analysis was performed using an ABI Prism 7900 system (Applied Biosystems, Foster City, Calif., USA). Samples were treated according to the following program: 5° C. for 2 min, 94° C. for 10 min, and 40 cycles of 95° C. for 15 s and 60° C. for 1 min. Analyses were performed in triplicate. For each sample, the cycle threshold (Ct) values were determined. Results were normalized to the GAPDH gene on the same plate. The levels of mRNA expression in different cell groups were calculated using the 2ΔCt method. Intron-spanning primers specific for each gene were designed. Their sequences are as follows: human GAPDH, […] (forward primer, F, SEQ ID NO:4), […] (reverse primer, R, SEQ ID NO:5); human IL-10, […] (F, SEQ ID NO:6), […] (R, SEQ ID NO:7); human IDO, […] (F, SEQ ID NO:8), TGACCTTTGCCCCACACAT (R, SEQ ID NO:9); human matrix-metallopeptidase-9 (MMP-9), […] (F, SEQ ID NO:10), […] (R, SEQ ID NO:11); human IL-4, […] (F, SEQ ID NO:12), GCCTGTGGAACTGCTGTGC (R, SQ ID NO:13); human IL-12p40, CGGTCATCTGCCGCAAA (F, SEQ ID NO:14), […] (R, SEQ ID NO:15); human TNF-α, […] (F, SEQ ID NO:16), CAGGCAGAAGAGCGTGGTG (R, SEQ ID NO:17); human IFN-γ, […] (F, SEQ ID NO:18), […] (R, SEQ ID NO:19); human Cox2, […] (F, SEQ ID NO:20), […] […]

[6] = system: MDDCs; assay: ELISA of cytokines in MDDC supernatants; format: cell-based, human; details: MDDCs differentiated with GRO-γ, recultured 3 days
Description: Supernatants from MDDCs alone (5×10^4), CD3^+ purified T-cells alone (isolated by the human CD3^+ Cell Isolation Kit, MACS, Miltenyi Biotec, Inc., 5×10^5), or MDDCs (5×10^4) co-cultured with CD3^+ purified T-cells (5×10^5) were harvested, and the concentrations of IL-4, IL-10, IL-12, INF-γ, IL-6 and TNF-α in supernatants were determined in triplicates using commercial ELISA kits according to the manufacturer's protocols (R&D systems).

[7] = system: IDO in iDCs; assay: Intracellular IDO staining, confocal microscopy; format: cell-based, human; details: iDCs differentiated in presence of GRO-γ
Description: MDDCs were generated in the presence or absence of GRO-γ and then analyzed for the intracellular expression of the IDO protein. Cells (5×10^4) were plated onto poly-L-lysine-coated glass slides for 15 min, and washed twice quickly with 0.5 mL PBS. Cells were fixed by adding 0.5 mL of 1% paraformaldehyde (Sigma-Aldrich) for 10 minutes, and then subsequently washed with PBS three times and incubated in 0.5 mL of 1% BSA/PBS for 30 min at room temperature. Cells were washed with 0.1% (v/v) NP-40/PBS three times, and then incubated with 0.5% BSA/PBS containing 1:50 diluted mouse anti-human IDO antibody (Chemicon Inc, Temecula, Calif., USA) at room temperature for 1 h. Cells were further washed with 0.1% (v/v) NP-40/PBS to remove unbound antibody, and then incubated with 1:150 diluted anti-mouse IgG conjugated with DyLight 488 (Sigma-Aldrich) for 1 h at room temperature. After three final washes with 0.1% (v/v) NP-40/PBS, the slides were mounted with 10% Glycerol/PBS and sealed with nail polish. Fluorescent images were captured using a Leica TCS SP5 camera (Leica Camera AG, Solms, Germany).

[8] = system: BMDCs from C57BL/6 mice; assay: FACS of CD11b+ Gr-1+ cells in mouse BMDCs; format: cell-based; details: GM-CSF with or without GRO-γ, six days
Description: as §1, §2

Row | Compound | reversal of suppressive effect of GRO-γ on selected surface markers ([1]; iDCs and mDCs, SB225002 250 nM pretreatment 30 min plus GRO-γ) | DC-SIGN expression ([1]; iDCs and mDCs, addition of SB225002 with GRO-γ) | blocking of GRO-γ effect on endocytic activity of iDCs ([2]; SB225002 250 nM plus GRO-γ) | blocking of GRO-γ effect on ability of mDCs to stimulate T-cell proliferation ([3]; SB225002 250 nM plus GRO-γ) | reversal of induction of ARG-1 and iNOS genes ([4]; GM-CSF/GRO-γ/SB225002 treated BMDCs) | effect on CD40 expression [1] | surface expression of CD40, CD83, CD80, CD11c, CD86 and DC-SIGN ([1]; iDCs, recombinant GRO-γ 250 ng/mL vs absence) | DC-SIGN expression ([1]; mDCs, addition of GRO-γ) | endocytic activity of iDCs ([2]; GRO-γ 250 ng/mL) | ability of mDCs to stimulate T-cell proliferation in mixed lymphocyte reaction ([3]; GRO-γ 250 ng/mL) | expression levels of IL-10, IL-4, TGF-β, IL-1β, IL-6, COX2, PD-L1, PD-L2, MMP-9 and IDO genes [5] | mRNA levels of TNF-α, IFN-γ and IL-12 [5] | levels of IFN-γ and IL-12 in supernatants [6] | levels of IL-4 and IL-10 in supernatants [6] | intracellular expression of IDO [7] | percentage (frequency) of double positive CD11b+ Gr-1+ cells in BMDCs [8] | protein expression and enzymatic activity of Arg-1 and iNOS ([4]; GRO-γ treated BMDCs) | mRNA levels of ARG-1 and iNOS ([4]; GRO-γ-treated BMDCs vs BMDCs) | expression of the Arg-1 gene, the iNOS gene, and the MDSC-related genes ([4]; presence of GRO-γ during BMDC differentiation)
1 | O=C(Nc1ccc([N+](=O)[O-])cc1O)Nc1ccccc1Br [SB225002, N-(2-Hydroxy-4-nitrophenyl)-N′-(2-bromophenyl) urea, reference compound] | significantly reversed | not affected | blocked | blocked | reversed the induction |  |  |  |  |  |  |  |  |  |  |  |  |  | 
2 | GRO-α: recombinant human GRO chemokine CXCL1 (SEQ ID NO:1), PeproTech |  |  |  |  |  | significant inhibitory effects |  |  |  |  |  |  |  |  |  |  |  |  | 
3 | GRO-γ: recombinant GRO chemokine CXCL3 (SEQ ID NO:3); human from PeproTech, mouse from R&D Systems |  |  |  |  |  | significant inhibitory effects | significantly reduced | not affected | significantly down-regulated | significantly down-regulated | significantly up-regulated | significantly down-regulated | reduced levels | elevated levels | increase in intracellular expression | did not depend on the presence of GRO-γ; also recorded: similar | increased | elevated | up-regulated
